“And” between values parts separate entries of the source, which are not always exact repeats. Equal entries are not always repeated. Values belong to the compound of their own block, whether it stands above or below them.
Experiments:
Assay type in all cases: in vivo, rat
serum bilirubin [1] = assay: serum bilirubin in neonatal rats treated with Cr-protoporphyrin
Description: (§1) The treated animals and the controls were assayed for heme oxygenase activity and bilirubin concentration. Since heme oxygenase is an essential component in the catabolism of heme, an increase in heme oxygenase activity is indicative of an increase in the rate of heme catabolism. Heme oxygenase was assyed as described by Maines and Kappas in J. Biol. Chem., 253, 2321-2326 (1978). Total bilirubin in serum was estimated by the method of Roth, Clin. Chem. Acta., 17, 487-492 (1967).
(§2) Similar studies were conducted with neonatal rats treated subcutaneously with 2 and 10 micromoles per kilogram of Cr-protoporphyrin soon after birth. Various organs were analyzed for heme oxygenase activity and bilirubin concentration. The results were compared with controls each of which were treated subcutaneously with 0.1 ml of saline.

heme oxygenase [2] = assay: heme oxygenase activity in liver, kidney and spleen of neonatal rats treated with Cr-protoporphyrin
Description: as §1, §2
The results for heme oxygenase activity in liver, kidney and spleen in nanamoles heme oxygenase per milligram microsomal protein per hour are shown below.

serum bilirubin [3] = assay: total serum bilirubin in neonatal rats treated with Sn-protoporphyrin; conditions: about 100 μmol/Kg s.c. per injection
Description: (§3) To determine the efficacy of Sn-protoporphyrin for controlling the rate of heme metabolism, neonatal rats were injected subcutaneously at birth, and at 12, 24, 48 and 72 hours postnatally with 0.1 ml solutions of Sn-protoporphyrin. To prepare the solutions for parenteral injection, the material was taken up in a small volume of 0.2N sodium hydroxide, adjusted to pH 7.4 with one normal hydrochloric acid and made up to final volume with 0.9% sodium chloride. The compositions as prepared and used contained sufficient Sn-protoporphyrin to provide about 100 μmol/Kg body weight in each 0.1 ml injection. Control neonates received an equivalent volume of saline at each time point. Groups of neonates (6-30 animals per group) were sacrificed at selected time intervals.
as §1

heme oxygenase [4] = assay: heme oxygenase activity (bilirubin production) in liver and kidney microsomes of adult rats treated with Sn-protoporphyrin; conditions: 50 μmol/Kg s.c.
Description: Studies were carried out with adult rats treated with Sn-protoporphyrin to determine the effect on heme oxygenase activity and bilirubin production. Three rats weighing about 230 grams each were injected subcutaneously with 50 μmol/Kg of Sn-protoporphyrin in isotonic saline at pH 8. Three controls were similiary treated with isotonic saline. The rats were sacrificed sixteen hours after treatment. The microsomal protein of the separate livers and of the three combined kidneys was estimated and heme oxygenase activity determined according to the method of Maines and Kappas. This procedure measures the heme oxygenase activity by determining the amount of bilirubin produced. The concentration unit for bilirubin is nanamoles bilirubin formed per milligram protein per hour.

heme oxygenase [5] = assay: hepatic heme oxygenase activity in neonatal rats treated with Sn-protoporphyrin
Description: as §3, §1

[6] = neonatal rats, about 100 μmol/Kg s.c. per injection

SMILES: C=CC1=C(C)c2cc3[n-]c(cc4[n-]c(cc5nc(cc1n2)C(C)=C5C=C)c(C)c4CCC(=O)[O-])c(CCC(=O)[O-])c3C.[Cr+3].[H+] [Cr-protoporphyrin]
Serum Bilirubin (serum bilirubin [1]; 2 μmol/Kg s.c. soon after birth, day 2): 0.39 milligrams per deciliter
Serum Bilirubin (serum bilirubin [1]; 2 μmol/Kg s.c. soon after birth, day 3): 0.33 milligrams per deciliter
Serum Bilirubin (serum bilirubin [1]; 2 μmol/Kg s.c. soon after birth, day 5): 0.28 milligrams per deciliter
Serum Bilirubin (serum bilirubin [1]; 2 μmol/Kg s.c. soon after birth, day 7): 0.32 milligrams per deciliter
Serum Bilirubin (serum bilirubin [1]; 2 μmol/Kg s.c. soon after birth, day 10): 0.33 milligrams per deciliter
Serum Bilirubin (serum bilirubin [1]; 2 μmol/Kg s.c. soon after birth, day 14): 0.40 milligrams per deciliter
Serum Bilirubin (serum bilirubin [1]; 10 μmol/Kg s.c. soon after birth, day 2): 0.43 milligrams per deciliter
Serum Bilirubin (serum bilirubin [1]; 10 μmol/Kg s.c. soon after birth, day 3): 0.33 milligrams per deciliter
Serum Bilirubin (serum bilirubin [1]; 10 μmol/Kg s.c. soon after birth, day 5): 0.24 milligrams per deciliter
Serum Bilirubin (serum bilirubin [1]; 10 μmol/Kg s.c. soon after birth, day 7): 0.30 milligrams per deciliter
Serum Bilirubin (serum bilirubin [1]; 10 μmol/Kg s.c. soon after birth, day 10): 0.33 milligrams per deciliter
Serum Bilirubin (serum bilirubin [1]; 10 μmol/Kg s.c. soon after birth, day 14): 0.28 milligrams per deciliter
effect on heme oxygenase (heme oxygenase [2]; 2 and 10 μmol/Kg s.c., liver, kidney, spleen): immediate decrease in heme oxygenase
heme oxygenase activity (heme oxygenase [2]; kidney, 2 μmol/Kg s.c. soon after birth, day 2): 0.36 nanamoles heme oxygenase per m
heme oxygenase activity (heme oxygenase [2]; kidney, 2 μmol/Kg s.c. soon after birth, day 3): 0.72 nanamoles heme oxygenase per m
heme oxygenase activity (heme oxygenase [2]; kidney, 2 μmol/Kg s.c. soon after birth, day 5): 0.94 nanamoles heme oxygenase per m
heme oxygenase activity (heme oxygenase [2]; kidney, 2 μmol/Kg s.c. soon after birth, day 7): 1.17 nanamoles heme oxygenase per m
heme oxygenase activity (heme oxygenase [2]; kidney, 2 μmol/Kg s.c. soon after birth, day 10): 1.67 nanamoles heme oxygenase per m
heme oxygenase activity (heme oxygenase [2]; kidney, 2 μmol/Kg s.c. soon after birth, day 14): 0.74 nanamoles heme oxygenase per m
heme oxygenase activity (heme oxygenase [2]; kidney, 2 μmol/Kg s.c. soon after birth, day 21): 0.61 nanamoles heme oxygenase per m
heme oxygenase activity (heme oxygenase [2]; kidney, 2 μmol/Kg s.c. soon after birth, day 35): 0.58 nanamoles heme oxygenase per m
heme oxygenase activity (heme oxygenase [2]; kidney, 10 μmol/Kg s.c. soon after birth, day 2): 0 nanamoles heme oxygenase per m
heme oxygenase activity (heme oxygenase [2]; kidney, 10 μmol/Kg s.c. soon after birth, day 3): 0.42 nanamoles heme oxygenase per m
heme oxygenase activity (heme oxygenase [2]; kidney, 10 μmol/Kg s.c. soon after birth, day 5): 0.59 nanamoles heme oxygenase per m
heme oxygenase activity (heme oxygenase [2]; kidney, 10 μmol/Kg s.c. soon after birth, day 7): 0.48 nanamoles heme oxygenase per m
heme oxygenase activity (heme oxygenase [2]; kidney, 10 μmol/Kg s.c. soon after birth, day 10): 0.34 nanamoles heme oxygenase per m
heme oxygenase activity (heme oxygenase [2]; kidney, 10 μmol/Kg s.c. soon after birth, day 14): 0.41 nanamoles heme oxygenase per m
heme oxygenase activity (heme oxygenase [2]; kidney, 10 μmol/Kg s.c. soon after birth, day 21): 0.16 nanamoles heme oxygenase per m
heme oxygenase activity (heme oxygenase [2]; kidney, 10 μmol/Kg s.c. soon after birth, day 35): 0.45 nanamoles heme oxygenase per m
heme oxygenase activity (heme oxygenase [2]; liver, 2 μmol/Kg s.c. soon after birth, day 2): 5.81 nanamoles heme oxygenase per m
heme oxygenase activity (heme oxygenase [2]; liver, 2 μmol/Kg s.c. soon after birth, day 3): 5.60 nanamoles heme oxygenase per m
heme oxygenase activity (heme oxygenase [2]; liver, 2 μmol/Kg s.c. soon after birth, day 5): 5.36 nanamoles heme oxygenase per m
heme oxygenase activity (heme oxygenase [2]; liver, 2 μmol/Kg s.c. soon after birth, day 7): 4.42 nanamoles heme oxygenase per m
heme oxygenase activity (heme oxygenase [2]; liver, 2 μmol/Kg s.c. soon after birth, day 10): 3.62 nanamoles heme oxygenase per m
heme oxygenase activity (heme oxygenase [2]; liver, 2 μmol/Kg s.c. soon after birth, day 14): 2.24 nanamoles heme oxygenase per m
heme oxygenase activity (heme oxygenase [2]; liver, 2 μmol/Kg s.c. soon after birth, day 21): 1.94 nanamoles heme oxygenase per m
heme oxygenase activity (heme oxygenase [2]; liver, 2 μmol/Kg s.c. soon after birth, day 35): 2.38 nanamoles heme oxygenase per m
heme oxygenase activity (heme oxygenase [2]; liver, 10 μmol/Kg s.c. soon after birth, day 2): 1.67 nanamoles heme oxygenase per m
heme oxygenase activity (heme oxygenase [2]; liver, 10 μmol/Kg s.c. soon after birth, day 3): 1.43 nanamoles heme oxygenase per m
heme oxygenase activity (heme oxygenase [2]; liver, 10 μmol/Kg s.c. soon after birth, day 5): 1.22 nanamoles heme oxygenase per m
heme oxygenase activity (heme oxygenase [2]; liver, 10 μmol/Kg s.c. soon after birth, day 7): 0.85 nanamoles heme oxygenase per m
heme oxygenase activity (heme oxygenase [2]; liver, 10 μmol/Kg s.c. soon after birth, day 10): 0.85 nanamoles heme oxygenase per m
heme oxygenase activity (heme oxygenase [2]; liver, 10 μmol/Kg s.c. soon after birth, day 14): 0.78 nanamoles heme oxygenase per m
heme oxygenase activity (heme oxygenase [2]; liver, 10 μmol/Kg s.c. soon after birth, day 21): 0.56 nanamoles heme oxygenase per m
heme oxygenase activity (heme oxygenase [2]; liver, 10 μmol/Kg s.c. soon after birth, day 35): 1.23 nanamoles heme oxygenase per m
heme oxygenase activity (heme oxygenase [2]; spleen, 2 μmol/Kg s.c. soon after birth, day 2): 7.33 nanamoles heme oxygenase per m
heme oxygenase activity (heme oxygenase [2]; spleen, 2 μmol/Kg s.c. soon after birth, day 3): 11.13 nanamoles heme oxygenase per m
heme oxygenase activity (heme oxygenase [2]; spleen, 2 μmol/Kg s.c. soon after birth, day 5): 15.13 nanamoles heme oxygenase per m
heme oxygenase activity (heme oxygenase [2]; spleen, 2 μmol/Kg s.c. soon after birth, day 7): 11.18 nanamoles heme oxygenase per m
heme oxygenase activity (heme oxygenase [2]; spleen, 2 μmol/Kg s.c. soon after birth, day 10): 13.87 nanamoles heme oxygenase per m
heme oxygenase activity (heme oxygenase [2]; spleen, 2 μmol/Kg s.c. soon after birth, day 14): 16.62 nanamoles heme oxygenase per m
heme oxygenase activity (heme oxygenase [2]; spleen, 2 μmol/Kg s.c. soon after birth, day 21): 10.28 nanamoles heme oxygenase per m
heme oxygenase activity (heme oxygenase [2]; spleen, 2 μmol/Kg s.c. soon after birth, day 35): 15.55 nanamoles heme oxygenase per m
heme oxygenase activity (heme oxygenase [2]; spleen, 10 μmol/Kg s.c. soon after birth, day 2): 3.97 nanamoles heme oxygenase per m
heme oxygenase activity (heme oxygenase [2]; spleen, 10 μmol/Kg s.c. soon after birth, day 3): 4.62 nanamoles heme oxygenase per m
heme oxygenase activity (heme oxygenase [2]; spleen, 10 μmol/Kg s.c. soon after birth, day 5): 2.76 nanamoles heme oxygenase per m
heme oxygenase activity (heme oxygenase [2]; spleen, 10 μmol/Kg s.c. soon after birth, day 7): 6.19 nanamoles heme oxygenase per m
heme oxygenase activity (heme oxygenase [2]; spleen, 10 μmol/Kg s.c. soon after birth, day 10): 9.53 nanamoles heme oxygenase per m
heme oxygenase activity (heme oxygenase [2]; spleen, 10 μmol/Kg s.c. soon after birth, day 14): 10.34 nanamoles heme oxygenase per m
heme oxygenase activity (heme oxygenase [2]; spleen, 10 μmol/Kg s.c. soon after birth, day 21): 8.06 nanamoles heme oxygenase per m
heme oxygenase activity (heme oxygenase [2]; spleen, 10 μmol/Kg s.c. soon after birth, day 35): 13.72 nanamoles heme oxygenase per m

activity compared with Cr-protoporphyrin (heme oxygenase [5]; decreasing rate of heme metabolism): more active
SMILES: C=Cc1c2[n-]c(c1C)/C=c1\[n-]/c(c(C)c1C=C)=C\c1[n-]c(c(CCC(=O)O)c1C)C=c1[n-]/c(c(C)c1CCC(=O)O)=C\2.[Sn+4] [Sn-protoporphyrin, tin protoporphyrin IX]
day until which low bilirubin concentration continued (serum bilirubin [3]): fourth
effect on serum bilirubin levels (serum bilirubin [3]; 42 day study): immediate and significant lowering of serum bilirubin levels
effect on bilirubin production and heme oxygenase activity (heme oxygenase [4]): extremely effective
heme oxygenase activity (bilirubin produced), LIVER (heme oxygenase [4]; sacrificed sixteen hours after treatment, separate livers (Experiment 1-3 = individual rats)): 0.95 nanamoles bilirubin formed per and 1.53 nanamoles bilirubin formed per
heme oxygenase activity (bilirubin produced), KIDNEY (COMBINED) (heme oxygenase [4]; sacrificed sixteen hours after treatment, three combined kidneys): 0.055 nanamoles bilirubin formed per
effect on normal postnatal increase in hepatic heme oxygenase activity (heme oxygenase [5]; neonatal rats, about 100 μmol/Kg s.c. at birth and 12, 24, 48, 72 hours, six week study): completely prevented the normal marked increase in hepatic heme oxygenase activity after birth
day at which hepatic heme oxygenase activity attained normal control levels (heme oxygenase [5]; [6]): ~42 days
time hepatic heme oxygenase activity remained well below control levels (heme oxygenase [5]; [6]): about three
hepatic heme oxygenase activity relative to controls (heme oxygenase [5]; neonatal rats, about 100 μmol/Kg s.c. per injection, 1 day): less than half the levels of the controls

— patent US4684637A, “Method of decreasing rate of heme metabolism” (The Rockefeller University, priority 1985, dated 1987)
